Reference: article doi:10.1101/504811v1 (biorxiv, 2018)

Biological target: T1, MPH-wt (Pseudomonas sp. WBC-3, UniProt Q841S6)
T1 sequence (Q841S6 36-331): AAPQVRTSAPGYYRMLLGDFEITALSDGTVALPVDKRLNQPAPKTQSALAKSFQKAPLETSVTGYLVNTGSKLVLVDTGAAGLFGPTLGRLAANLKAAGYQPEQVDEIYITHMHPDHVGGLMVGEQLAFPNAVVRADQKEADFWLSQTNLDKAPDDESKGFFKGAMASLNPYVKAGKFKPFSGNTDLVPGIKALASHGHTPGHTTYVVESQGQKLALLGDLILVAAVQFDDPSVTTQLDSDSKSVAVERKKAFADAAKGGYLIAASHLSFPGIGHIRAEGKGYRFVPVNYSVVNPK
Assay: hydrolysis kinetics, purified enzyme
Format: biochemical

SMILES: O=C1CCc2ccccc2O1 [dihydrocoumarin]
- KM: only moderate DHCH activity
